Source: ChEMBL document CHEMBL1201862, “PubChem BioAssay data set” (2004)
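48-hour exposure; five concentrations; linearly interpolated endpoints. The concentration for 50% growth inhibition is given as GI50.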 Calls of active or inactive are those of the source. Rule as the data show it: active = GI50 up to about 1.1 µM and inactive = higher.

Legend:
Experiment in all cases: NCI-60 cell line screen, 48 h
786-0 = tested on: 786-0
A498 = tested on: A498
DU-145 = tested on: DU-145
HCC 2998 = tested on: HCC 2998
IGROV-1 = tested on: IGROV-1
KM12 = tested on: KM12
LOX IMVI = tested on: LOX IMVI
NCI-H226 = tested on: NCI-H226
NCI-H23 = tested on: NCI-H23
NCI-H522 = tested on: NCI-H522
OVCAR-8 = tested on: OVCAR-8
RPMI-8226 = tested on: RPMI-8226
RXF 393 = tested on: RXF 393
SF-295 = tested on: SF-295
SK-MEL-2 = tested on: SK-MEL-2
SK-OV-3 = tested on: SK-OV-3
SN12C = tested on: SN12C
SNB-75 = tested on: SNB-75
SR = tested on: SR
UACC-257 = tested on: UACC-257

SMILES	GI50 (786-0)	GI50 (A498)	GI50 (DU-145)	GI50 (HCC 2998)	GI50 (IGROV-1)	GI50 (KM12)	GI50 (LOX IMVI)	GI50 (NCI-H226)	GI50 (NCI-H23)	GI50 (NCI-H522)	GI50 (OVCAR-8)	GI50 (RPMI-8226)	GI50 (RXF 393)	GI50 (SF-295)	GI50 (SK-MEL-2)	GI50 (SK-OV-3)	GI50 (SN12C)	GI50 (SNB-75)	GI50 (SR)	GI50 (UACC-257)
CCn1c(SCC(=O)NNC(=S)Nc2ccc(C)cc2)nc2ccccc2c1=O	> 100 µM (inactive)	> 100 µM (inactive)	> 100 µM (inactive)	> 100 µM (inactive)	> 100 µM (inactive)	> 100 µM (inactive)	> 100 µM (inactive)	> 100 µM (inactive)	> 100 µM (inactive)	> 100 µM (inactive)	> 100 µM (inactive)	70.1 µM (inactive)	> 100 µM (inactive)	> 100 µM (inactive)	> 100 µM (inactive)	> 100 µM (inactive)	> 100 µM (inactive)	> 100 µM (inactive)	40.6 µM (inactive)	> 100 µM (inactive)
COc1cccc2c1C(=O)c1c(O)c3c(c(O)c1C2=O)C[C@@](O)(C(C)=O)C[C@@H]3OC1CC(N(C)C)C(O)C(C)O1 (stereo not given in full)	0.0562 µM (active)	0.00464 µM (active)	0.000785 µM (active)	0.0333 µM (active)	0.00447 µM (active)	0.00485 µM (active)	0.00223 µM (active)	0.029 µM (active)	0.00508 µM (active)	0.0046 µM (active)	0.00405 µM (active)	0.0113 µM (active)	0.00681 µM (active)	0.00425 µM (active)	0.0798 µM (active)	0.00593 µM (active)	0.00357 µM (active)	0.00346 µM (active)	0.00135 µM (active)	0.00555 µM (active)
CC(C)(C)N1CC1CNC(=O)C(=O)NCC1CN1C(C)(C)C (stereo not given)	1.4 µM (inactive)	2.68 µM (inactive)	7.62 µM (inactive)	3.16 µM (inactive)	5.83 µM (inactive)	4.74 µM (inactive)	8.24 µM (inactive)	7.83 µM (inactive)	2.74 µM (inactive)	1.31 µM (inactive)	1.79 µM (inactive)	5.86 µM (inactive)	1.67 µM (inactive)	3.33 µM (inactive)	5.33 µM (inactive)	3.69 µM (inactive)	2.33 µM (inactive)	4.32 µM (inactive)	0.601 µM (active)	5.05 µM (inactive)
c1cc2nnc1SCCSCCCSCCS2	67 µM (inactive)	> 100 µM (inactive)	2.86 µM (inactive)	> 100 µM (inactive)	> 100 µM (inactive)	> 100 µM (inactive)	> 100 µM (inactive)	> 100 µM (inactive)	> 100 µM (inactive)	> 100 µM (inactive)	> 100 µM (inactive)	> 100 µM (inactive)	> 100 µM (inactive)	> 100 µM (inactive)	> 100 µM (inactive)	> 100 µM (inactive)	> 100 µM (inactive)	5.83 µM (inactive)	> 100 µM (inactive)	> 100 µM (inactive)
OC1(c2ccc(Cl)cc2)c2ccccc2C2=Nc3ccccc3CN21 (stereo not given)	13.1 µM (inactive)	27.6 µM (inactive)	36.2 µM (inactive)	> 71.4 µM (inactive)	39.2 µM (inactive)	28 µM (inactive)	25.6 µM (inactive)	37.8 µM (inactive)	> 44.9 µM (inactive)	25.1 µM (inactive)	13.2 µM (inactive)	33.4 µM (inactive)	21 µM (inactive)	20.4 µM (inactive)	> 51.2 µM (inactive)	38.5 µM (inactive)	22.2 µM (inactive)	17.8 µM (inactive)	5.93 µM (inactive)	> 100 µM (inactive)
O=c1[nH]c(=O)n(C2COC(CO)C2O)cc1F (stereo not given)	70 µM (inactive)	5.28 µM (inactive)	29.8 µM (inactive)	8.73 µM (inactive)	32.4 µM (inactive)	> 100 µM (inactive)	11 µM (inactive)	> 100 µM (inactive)	15.1 µM (inactive)	43.7 µM (inactive)	57 µM (inactive)	36.5 µM (inactive)	2.94 µM (inactive)	30.5 µM (inactive)	61.4 µM (inactive)	74.6 µM (inactive)	28.3 µM (inactive)	31 µM (inactive)	95.3 µM (inactive)	60.4 µM (inactive)
OCCNC1c2cc(Cl)ccc2-c2c(Cl)cc(Cl)cc21 (stereo not given)	27.3 µM (inactive)	48 µM (inactive)	> 100 µM (inactive)	35.1 µM (inactive)	13.2 µM (inactive)	32.7 µM (inactive)	34.5 µM (inactive)	> 100 µM (inactive)	39.2 µM (inactive)	27.8 µM (inactive)	28.6 µM (inactive)	33.1 µM (inactive)	40.2 µM (inactive)	35.6 µM (inactive)	15.2 µM (inactive)	42 µM (inactive)	25.5 µM (inactive)	37.9 µM (inactive)	20.5 µM (inactive)	31.3 µM (inactive)
COc1ccc(NC(=O)CSc2nnc(-c3ccc(/N=C\c4ccc(Cl)cc4)cc3)o2)cc1	37.8 µM (inactive)	> 100 µM (inactive)	34.5 µM (inactive)	52.8 µM (inactive)	39.5 µM (inactive)	29.9 µM (inactive)	7.98 µM (inactive)	> 44.6 µM (inactive)	36 µM (inactive)	26.7 µM (inactive)	35.9 µM (inactive)	9.06 µM (inactive)	> 69.7 µM (inactive)	48.5 µM (inactive)	15 µM (inactive)	51.8 µM (inactive)	16.1 µM (inactive)	31.6 µM (inactive)	13.3 µM (inactive)	46.5 µM (inactive)
Cc1cc(O)c2cc3c(O)c(O)ccc3cc2c1	3.95 µM (inactive)	3.12 µM (inactive)	3.91 µM (inactive)	0.817 µM (active)	1.51 µM (inactive)	0.561 µM (active)	1.35 µM (inactive)	1.23 µM (inactive)	1.24 µM (inactive)	0.789 µM (active)	0.743 µM (active)	0.326 µM (active)	0.713 µM (active)	0.619 µM (active)	0.895 µM (active)	0.774 µM (active)	2.46 µM (inactive)	0.488 µM (active)	0.618 µM (active)	3.2 µM (inactive)
COC1(OC)N=C(N)C2(C#N)/C(=N/N(C)C)CC(C)C12C#N (stereo not given)	> 100 µM (inactive)	> 100 µM (inactive)	> 100 µM (inactive)	> 100 µM (inactive)	> 100 µM (inactive)	> 100 µM (inactive)	> 100 µM (inactive)	> 100 µM (inactive)	> 100 µM (inactive)	> 100 µM (inactive)	> 100 µM (inactive)	> 10 µM (inactive)	> 100 µM (inactive)	> 100 µM (inactive)	> 100 µM (inactive)	> 100 µM (inactive)	> 100 µM (inactive)	71.9 µM (inactive)	> 100 µM (inactive)	> 100 µM (inactive)
C[N+](C)(C)CC1Cc2ccccc2C1=O (stereo not given)	3.32 µM (inactive)	> 10 µM (inactive)	> 10 µM (inactive)	> 10 µM (inactive)	> 10 µM (inactive)	> 10 µM (inactive)	4.41 µM (inactive)	> 10 µM (inactive)	> 10 µM (inactive)	2.36 µM (inactive)	1.89 µM (inactive)	1.48 µM (inactive)	> 9.31 µM (inactive)	> 10 µM (inactive)	> 9.14 µM (inactive)	> 10 µM (inactive)	> 7.45 µM (inactive)	> 10 µM (inactive)	1.22 µM (inactive)	> 10 µM (inactive)
CC(C)(C)c1cc(C2COC(=O)COCC(=O)OCCOCCOCCO2)cc(C(C)(C)C)c1O (stereo not given)	21.4 µM (inactive)	> 51.4 µM (inactive)	21 µM (inactive)	14.5 µM (inactive)	> 100 µM (inactive)	> 100 µM (inactive)	31 µM (inactive)	> 100 µM (inactive)	> 77.6 µM (inactive)	> 52.8 µM (inactive)	62.4 µM (inactive)	> 100 µM (inactive)	20.7 µM (inactive)	23.6 µM (inactive)	32.1 µM (inactive)	24.9 µM (inactive)	14.4 µM (inactive)	16.1 µM (inactive)	58.1 µM (inactive)	> 61.7 µM (inactive)
CCCCCCCCCCCCCCCCCC(=O)Nc1ccn(C2OC(CO)C(O)C2O)c(=O)n1 (stereo not given)	> 40.8 µM (inactive)	15.3 µM (inactive)	10.7 µM (inactive)	8.36 µM (inactive)	39 µM (inactive)	> 65.9 µM (inactive)	9.89 µM (inactive)	> 90.2 µM (inactive)	4.8 µM (inactive)	5.04 µM (inactive)	7.48 µM (inactive)	31.6 µM (inactive)	26.8 µM (inactive)	> 85.1 µM (inactive)	> 100 µM (inactive)	35.1 µM (inactive)	26.1 µM (inactive)	52.6 µM (inactive)	2.14 µM (inactive)	> 100 µM (inactive)
